Measurements published in patent publication US20240058464A1 (Fortis Therapeutics, Inc., priority 2021, published 2024).

Assays:
CD46 expression [1] = experiment: CD46 expression by RNA-sequencing in unpaired pre-treatment and post-treatment tumor biopsies; type: in vivo, human
CD46 expression [2] = experiment: CD46 expression by RNA-sequencing in paired tumor biopsies before and after therapy; conditions: paired biopsies; for CD46 expression, Post-Treatment Biopsy: RNA-seq log2-transformed counts;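 as to all read-outs here: FFPE human tumor biopsies, exome-capture RNA-seq, reads aligned to GRCh37, counts normalized for GC content, length and depth, summed per gene, log2-transformed, samples paired before versus after therapy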
[3] = Breast Cancer, Post minus Pre, unpaired biopsies, log2-transformed counts
[4] = Breast Cancer, post- vs pre-treatment unpaired biopsies
[5] = Breast Cancer, post-treatment biopsies, unpaired, RNA-seq log2-transformed normalized counts
[6] = Sarcoma, Post minus Pre, unpaired biopsies, log2-transformed counts
[7] = Sarcoma, post- vs pre-treatment unpaired biopsies
[8] = Sarcoma, post-treatment biopsies, unpaired, RNA-seq log2-transformed normalized counts

Q: Which results are given for `CC(=O)c1c(C)c2cnc(Nc3ccc(N4CCNCC4)cn3)nc2n(C2CCCC2)c1=O` [palbociclib]?
A: CD46 expression diff (CD46 expression [1]; [3]): 0.01; CD46 expression Percentage change (CD46 expression [1]; [4]): 0.2%; CD46 expression Post (CD46 expression [1]; [5]): 6.42; CD46 expression diff (post minus pre) (CD46 expression [2]; Breast Cancer): −0.17; Percent Change in CD46 expression (CD46 expression [2]; Breast Cancer): −2.7%; CD46 expression, Post-Treatment Biopsy (CD46 expression [2]; Breast Cancer): 6.34

Q: Which results are given for `Nc1ccn([C@@H]2O[C@H](CO)[C@@H](O)C2(F)F)c(=O)n1` [gemcitabine]?
A: CD46 expression diff (CD46 expression [1]; Biliary Cancer, Post minus Pre, unpaired biopsies, log2-transformed counts): −0.03; CD46 expression Percentage change (CD46 expression [1]; Biliary Cancer, post- vs pre-treatment unpaired biopsies): −0.5%; CD46 expression Post (CD46 expression [1]; Biliary Cancer, post-treatment biopsies, unpaired, RNA-seq log2-transformed normalized counts): 5.80; CD46 expression diff (CD46 expression [1]; Bladder Cancer, Post minus Pre, unpaired biopsies, log2-transformed counts): −0.03; CD46 expression Percentage change (CD46 expression [1]; Bladder Cancer, post- vs pre-treatment unpaired biopsies): −0.5%; CD46 expression Post (CD46 expression [1]; Bladder Cancer, post-treatment biopsies, unpaired, RNA-seq log2-transformed normalized counts): 6.12; CD46 expression diff (CD46 expression [1]; [3]): 0.02; CD46 expression Percentage change (CD46 expression [1]; [4]): 0.3%; CD46 expression Post (CD46 expression [1]; [5]): 6.09; CD46 expression diff (CD46 expression [1]; Non-Small Cell Lung Cancer, Post minus Pre, unpaired biopsies, log2-transformed counts): 0.10; CD46 expression Percentage change (CD46 expression [1]; Non-Small Cell Lung Cancer, post- vs pre-treatment unpaired biopsies): 1.7%; CD46 expression Post (CD46 expression [1]; Non-Small Cell Lung Cancer, post-treatment biopsies, unpaired, RNA-seq log2-transformed normalized counts): 5.98; CD46 expression diff (CD46 expression [1]; Ovarian Cancer, Post minus Pre, unpaired biopsies, log2-transformed counts): −0.05; CD46 expression Percentage change (CD46 expression [1]; Ovarian Cancer, post- vs pre-treatment unpaired biopsies): −0.9%; CD46 expression Post (CD46 expression [1]; Ovarian Cancer, post-treatment biopsies, unpaired, RNA-seq log2-transformed normalized counts): 5.72; CD46 expression diff (CD46 expression [1]; Pancreatic Cancer, Post minus Pre, unpaired biopsies, log2-transformed counts): 0.00; CD46 expression Percentage change (CD46 expression [1]; Pancreatic Cancer, post- vs pre-treatment unpaired biopsies): 0.1%; CD46 expression Post (CD46 expression [1]; Pancreatic Cancer, post-treatment biopsies, unpaired, RNA-seq log2-transformed normalized counts): 5.87; CD46 expression diff (CD46 expression [1]; [6]): −0.10; CD46 expression Percentage change (CD46 expression [1]; [7]): −2.0%; CD46 expression Post (CD46 expression [1]; [8]): 5.02; CD46 expression diff (post minus pre) (CD46 expression [2]; Biliary Cancer): 0.05; Percent Change in CD46 expression (CD46 expression [2]; Biliary Cancer): 0.9%; CD46 expression, Post-Treatment Biopsy (CD46 expression [2]; Biliary Cancer): 5.86; CD46 expression diff (post minus pre) (CD46 expression [2]; Bladder Cancer): −0.05; Percent Change in CD46 expression (CD46 expression [2]; Bladder Cancer): −0.8%; CD46 expression, Post-Treatment Biopsy (CD46 expression [2]; Bladder Cancer): 6.24; CD46 expression diff (post minus pre) (CD46 expression [2]; Breast Cancer): 0.09; Percent Change in CD46 expression (CD46 expression [2]; Breast Cancer): 1.4%; CD46 expression, Post-Treatment Biopsy (CD46 expression [2]; Breast Cancer): 6.22; CD46 expression diff (post minus pre) (CD46 expression [2]; Ovarian Cancer): 0.30; Percent Change in CD46 expression (CD46 expression [2]; Ovarian Cancer): 5.3%; CD46 expression, Post-Treatment Biopsy (CD46 expression [2]; Ovarian Cancer): 5.95; CD46 expression diff (post minus pre) (CD46 expression [2]; Pancreatic Cancer): 0.09; Percent Change in CD46 expression (CD46 expression [2]; Pancreatic Cancer): 1.5%; CD46 expression, Post-Treatment Biopsy (CD46 expression [2]; Pancreatic Cancer): 5.93; CD46 expression diff (post minus pre) (CD46 expression [2]; Sarcoma): 0.02; Percent Change in CD46 expression (CD46 expression [2]; Sarcoma): 0.4%; CD46 expression, Post-Treatment Biopsy (CD46 expression [2]; Sarcoma): 5.13

Q: What does the source list for `C[C@]12CC[C@@H]3c4ccc(O)cc4C[C@@H](CCCCCCCCC[S+]([O-])CCCC(F)(F)C(F)(F)F)[C@H]3[C@@H]1CC[C@@H]2O` (stereo partly drawn) [fulvestrant]?
A: CD46 expression diff (CD46 expression [1]; [3]): −0.08; CD46 expression Percentage change (CD46 expression [1]; [4]): −1.2%; CD46 expression Post (CD46 expression [1]; [5]): 6.41; CD46 expression diff (post minus pre) (CD46 expression [2]; Breast Cancer): −0.13; Percent Change in CD46 expression (CD46 expression [2]; Breast Cancer): −2.1%; CD46 expression, Post-Treatment Biopsy (CD46 expression [2]; Breast Cancer): 6.44

Q: How did the CD46 expression diff (CD46 expression [1]; Colorectal Cancer, Post minus Pre, unpaired biopsies, log2-transformed counts) turn out when aflibercept was run?
A: 0.21

Q: And the “CD46 expression Percentage change” value (CD46 expression [1]; Colorectal Cancer, post- vs pre-treatment unpaired biopsies)?
A: 3.3%

Q: And the “CD46 expression Post” value (CD46 expression [1]; Colorectal Cancer, post-treatment biopsies, unpaired, RNA-seq log2-transformed normalized counts)?
A: 6.58

Q: What does the source list for `CN(Cc1cnc2nc(N)nc(N)c2n1)c1ccc(C(=O)N[C@@H](CCC(=O)O)C(=O)O)cc1` [methotrexate]?
A: CD46 expression diff (CD46 expression [1]; Bladder Cancer, post minus pre, unpaired biopsies): −0.25; CD46 expression Percentage change (CD46 expression [1]; Bladder Cancer, post vs pre, unpaired biopsies): −4.0%; CD46 expression Post (CD46 expression [1]; Bladder Cancer, post-treatment biopsies, log2-transformed RNA-seq counts): 5.88; CD46 expression diff (CD46 expression [1]; [3]): 0.07; CD46 expression Percentage change (CD46 expression [1]; [4]): 1.2%; CD46 expression Post (CD46 expression [1]; [5]): 6.32

Q: `CC(C)(C)c1nc(-c2cccc(NS(=O)(=O)c3c(F)cccc3F)c2F)c(-c2ccnc(N)n2)s1` [dabrafenib] was tested. Which CD46 expression diff (CD46 expression [1]; Melanoma, Post minus Pre, unpaired biopsies, log2-transformed counts) did it give?
A: 0.11

Q: What about the “CD46 expression Percentage change” value (CD46 expression [1]; Melanoma, post- vs pre-treatment unpaired biopsies) of the same compound?
A: 2.0%

Q: What about the “CD46 expression Post” value (CD46 expression [1]; Melanoma, post-treatment biopsies, unpaired, RNA-seq log2-transformed normalized counts) of the same compound?
A: 5.42

Q: With `NC(=O)c1cccc2cn(-c3ccc([C@@H]4CCCNC4)cc3)nc12` [niraparib] as the compound, how does the “CD46 expression Percentage change” value (CD46 expression [1]; in vivo) read?
A: 0.1%

Q: What about the “CD46 expression Post” value (CD46 expression [1]; in vivo) of the same compound?
A: 5.72

Q: And the CD46 expression diff (CD46 expression [1]; in vivo)?
A: 0.00

Q: Which CD46 expression diff (CD46 expression [1]; [6]) does the source give for `COc1cc2c(cc1O)CCN[C@]21CS[C@@H]2c3c(OC(C)=O)c(C)c4c(c3[C@H](COC1=O)N1[C@@H]2[C@H]2c3c(cc(C)c(OC)c3O)C[C@@H]([C@@H]1O)N2C)OCO4` [trabectedin] here?
A: 0.00

Q: And the “CD46 expression Percentage change” value (CD46 expression [1]; [7])?
A: −0.1%

Q: What about the “CD46 expression Post” value (CD46 expression [1]; [8]) of the same compound?
A: 5.23

Q: With `CCN1CCN(Cc2ccc(Nc3ncc(F)c(-c4cc(F)c5nc(C)n(C(C)C)c5c4)n3)nc2)CC1` [abemaciclib] as the compound, how does the CD46 expression diff (CD46 expression [1]; Breast Cancer, post minus pre, unpaired biopsies) read?
A: −0.15

Q: What about the “CD46 expression Percentage change” value (CD46 expression [1]; Breast Cancer, post vs pre, unpaired biopsies) of the same compound?
A: −2.4%

Q: What about the “CD46 expression Post” value (CD46 expression [1]; Breast Cancer, post-treatment biopsies, log2-transformed RNA-seq counts) of the same compound?
A: 6.33
